Where no end group is shown, it is not given here.
Columns and labels:
[1] = system: A2780 human ovarian carcinoma cells; assay: Expression of BCL-2, BCL-XL, SMAC, APAF-1, caspase 9 and caspase 3 genes after CPT conjugates; assay type: cell-based; conditions: 48-hour incubation
Method: The expression of genes encoding antiapoptotic members of the BCL-2 protein family (BCL-2 and BCL-XL), caspase activators (SMAC and APAF-1), caspase 9 (apoptosis inhibitor) and caspase 3 (apoptosis executor) as well as the activity of the caspases was measured after a 48-hour incubation of A2780 human ovarian carcinoma cells with CPT, CPT-PEG, CPT-PEG-BH3, or CPT-PEG-LHRH conjugates.
Gene expression. A combination of reverse transcription (RT) and polymerase chain reaction (PCR) was used for the analysis of gene expression as described (Minko, et al. (1999) J. Controlled Rel. 59:133-148). Briefly, total cellular RNA was isolated using an RNeasy kit (QIAGEN,™, Valencia, Calif.) and a […] ™ micro-spin homogenizer (QIAGEN). First-strand cDNA was synthesized by Ready-To-Go You-Prime First-Strand Beads (Amersham Biosciences, Piscataway, N.J.) according to the manufacturer's instructions with 2 μg of total cellular RNA (from 1×10^7 cells) and 100 ng of random hexadeoxynucleotide primer (Amersham Biosciences, Piscataway, N.J.). After synthesis, the reaction mixture was diluted 1:3 with water and immediately subjected to PCR, which was carried out using GenAmp PCR System 2400 (Perkin Elmer Instruments, Shelton, Conn.). […]

[2] = healthy tissues and tumor; cited from earlier work
[3] = system: human ovarian carcinoma cells; assay: Cytotoxicity (IC50 dose) of Ant, Ant-BH3 peptide and DOX; assay type: cell-based; conditions: Ovarian carcinoma cell; human ovarian carcinoma cells
Method: (§1) By way of example, the effectiveness of a BH3 peptide ([…] SEQ ID NO:1) to increase cell death by inducing the mitochondrial dysfunction leading to necrosis was measured. BH3 peptide was delivered into human ovarian carcinoma cells by the Antennapedia (Ant) internalization sequence (Arg-Gln-Ile-lys-[…] SEQ ID NO:2). Mitochondrial function was assessed by flow cytometry analysis using the lipophilic cationic fluorescent probe 5,5′,6,6′-tetrachloro-1,1′,3,3′-tetraethylbenzimidazolcarbo-cyanine iodide (JC-1). This probe exists as a monomer, and upon excitation at 490 nm, emits light at 527 nm resulting in green fluorescence. At high mitochondrial transmembrane potential, JC-1 forms multimers, known as J-aggregates, and emits light at 590 nm upon excitation at 490 nm resulting in red fluorescence. Therefore, the red/green fluorescence ratio measured by flow cytometry reflects the number of functioning mitochondria. […] The effect of the Ant-BH3 peptide on mitochondrial transmembrane potential was also determined.
Cytotoxicity. The cytotoxicity of drugs were assessed using a modified MTT (3-(4,5-dimethylthiazol-2-yl)-2,5-diphenyltetrazolium bromide) assay (Kunath, et al. (2000) Eur. J. Pharm. Biopharm 49:11-15; Minko, et al. (1998) J. Controlled Rel. 54:223-233; Minko, et al. (1999) J. Controlled Rel. 59:133-148; Minko, et al. (2002) Cancer Chemother. Pharmacol. 50:143-150). […]

[4] = system: xenografts of ovarian carcinoma cells; assay: DOX treatment of mice xenografts of ovarian carcinoma cells; assay type: in vivo; conditions: up to 25 days of treatment
Source text: (§2) It has been shown that prolonged exposure or high concentrations of anticancer drugs leads to the development of drug resistance (Minko, et al. (2001) Dis. Manag. Clin. Outcomes 3:48-54; Minko, et al. (1999) J. Controlled Rel. 59:133-148; Pakunlu (2003) Pharm. Res. 20:351-359; Minko, et al. (1999) Pharm. Res. 16:986-996; Minko, et al. (2001) J. Control. Rel. 71:227-237). To analyze antiapoptotic resistance, the degree of apoptosis to doxorubicin (DOX), a traditional, well-established anticancer drug, was determined. The enrichment of cell lysate and media by mono- and oligonucleosomes was measured using a cell death detection ELISA kit. The expression of genes was measured by reverse transcription PCR (RT-PCR) using β2-microglobulin (β2-m) as an internal standard. […] Similar results were obtained after repeated incubation of human ovarian carcinoma cells with low doses of DOX (Minko, et al. (1999) supra; Minko, et al. (1999) supra) and after treatment of mice xenografts of ovarian carcinoma cells with DOX. […] Thus, suppression of this antiapoptotic cellular defense mechanism is desirable.

[5] = system: human ovarian carcinoma cells; assay: Apoptosis and BCL-2 expression after DOX (cell death ELISA, RT-PCR); assay type: cell-based
Source text: as §2

[6] = system: genes encoding antiapoptotic members of the BCL-2 protein family; assay: RT-PCR expression of genes encoding antiapoptotic members of the BCL-2 protein family; assay type: cell-based, human; conditions: 48 hours, IC50 dose of Ant-BH3 peptide; β2-m internal standard
Method: (§3) The influence of BH3 peptide, delivered by an Ant-BH3 fusion peptide, on the expression of proteins and genes encoding proapoptotic and antiapoptotic members of the BCL-2 protein family was determined. The expression of genes was measured by RT-PCR using β2-m as an internal standard.
(§4) Cell death signaling pathways. To characterize the cell death signaling pathways, the expression of p53, c-fos, c-jun, proapoptotic (BAD, BAX, BCL-G, BCL-W, BCL-XS, BID, BIK, BIM, BNIP 1-3, HARAKIR1, MSL-1S, NIX) and antiapoptotic (BCL-2, AVEN, BAG, BCL-XL, BFL, DAD1, MSL-1) members of BCL-2 family of proteins and genes encoding these proteins were measured by western blot analysis and RT-PCR, respectively using well-established methods known to those of skill in the art.
(§5) Gene expression. A combination of reverse transcription (RT) and polymerase chain reaction (PCR) was used for the analysis of gene expression as described (Minko, et al. (1999) J. Controlled Rel. 59:133-148). Briefly, total cellular RNA was isolated using an RNeasy kit (QIAGEN,™, Valencia, Calif.) and a […]™ micro-spin homogenizer (QIAGEN). First-strand cDNA was synthesized by Ready-To-Go You-Prime First-Strand Beads (Amersham Biosciences, Piscataway, N.J.) according to the manufacturer's instructions with 2 μg of total cellular RNA (from 1×10^7 cells) and 100 ng of random hexadeoxynucleotide primer (Amersham Biosciences, Piscataway, N.J.). After synthesis, the reaction mixture was diluted 1:3 with water and immediately subjected to PCR, which was carried out using GenAmp PCR System 2400 (Perkin Elmer Instruments, Shelton, Conn.). The pairs of primers used to amplify each type of cDNA and PCR regimes are well-known in the art (Kunath, et al. (2000) supra; Minko, et al. (2003) supra; Minko, et al. (2002) supra; Minko, et al. (1999) supra; Minko, et al. (2000) supra; Minko, et al. (2001) supra). PCR products were separated in 4% NUSIEVE® 3:1 RELIANT® agarose gels (BMA, East Rutherford, N.J.) in 1×TBE buffer (0.089 M Tris/Borate, 0.002 M EDTA, pH 8.3) by submarine electrophoresis. The gels were stained with ethidium bromide and digitally photographed. To calculate the size and amount of PCR products, a Low DNA Mass ladder (GibcoBRL, Carlsbad, Calif.) was used. β2-microglobulin was used as an internal standard and to confirm the efficacy of PCR (Kunath, et al. (2000) supra; Minko, et al. (2001) supra).

[7] = system: cancer cells not expressing LHRHR; assay: Cytotoxicity in LHRHR-negative cancer cells; assay type: cell-based
Method: (§6) In contrast, LHRH-BH3 peptide was not toxic in cancer cells not expressing LHRHR. Further, non-targeted Ant-BH3 peptide was toxic in both LHRHR-positive and negative cancer cells. […] Thus, the LHRH peptide specifically targets cancer cells expressing the LHRHR and facilitates the uptake of LHRH-conjugates.
(§7) Cytotoxicity. The cytotoxicity of drugs were assessed using a modified MTT (3-(4,5-dimethylthiazol-2-yl)-2,5-diphenyltetrazolium bromide) assay (Kunath, et al. (2000) Eur. J. Pharm. Biopharm 49:11-15; Minko, et al. (1998) J. Controlled Rel. 54:223-233; Minko, et al. (1999) J. Controlled Rel. 59:133-148; Minko, et al. (2002) Cancer Chemother. Pharmacol. 50:143-150). To measure cytotoxicity, cells were incubated in a 96-well microtiter plate with 45 different equivalent concentrations of CPT ranging from […] in a complex conjugate. Six wells were used for control cells. The duration of incubation was varied from 3 to 72 hours to find an optimal range of incubation time for each complex conjugate.

[8] = system: LHRHR-positive A2780 human ovarian carcinoma cells; assay: Cytotoxicity, modified MTT assay; assay type: cell-based; conditions: LHRHR-positive cancer cells; up to the highest possible concentration
Method: as §6
Cytotoxicity of CPT, CPT-PEG, CPT-PEG-BH3, and CPT-PEG-LHRH conjugates and the combination of CPT-PEG-BH3 with CPT-PEG-LHRH conjugates was analyzed using a modified MTT assay (Minko, et al. (1998) supra) in sensitive A2780 and multidrug resistant A2780/AD human ovarian carcinoma cells.
as §7

[9] = system: genes encoding proapoptotic members of the BCL-2 protein family; assay: RT-PCR expression of genes encoding proapoptotic members of the BCL-2 protein family; assay type: cell-based, human; conditions: 48 hours, IC50 dose of Ant-BH3 peptide; β2-m internal standard
Method: as §3, §4, §5

[10] = system: human ovarian carcinoma cells; assay: Mitochondrial transmembrane potential, JC-1 probe, flow cytometry; assay type: cell-based; conditions: JC-1 red/green fluorescence ratio
Method: as §1, with “mitochondria. Ant alone was not toxic up to the highest possible concentration (1 mg/mL). In contrast, the combination of Ant with BH3 peptide led to a significant increase in toxicity of the peptide.” for “mitochondria.”

[11] = system: A2780 human ovarian carcinoma cells; assay: RT-PCR expression of caspases, APAF-1 and SMAC; assay type: cell-based
Method: The effect of the LHRH-BH3 peptide on apoptosis was analyzed by measuring transcriptional and translational levels and activity of human caspases. […] Active caspase 9, in turn, activates a cascade of downstream caspases, as evidenced by increased expression levels, which subsequently leads to induction of apoptosis.
Cystein aspartate-specific proteases (caspases). Three approaches were used to analyze the role of each of the human caspases in the apoptosis induction. First, the expression of genes encoding human caspases 1-10 and the Apoptotic Protease Activating Factor (APAF-1) and Second Mitochondria-Derived Activator of Caspase (SMAC) were studied by RT-PCR (Minko, et al. (1999) supra; Minko, et al. (2000) supra). […] Therefore, in addition to the measurement of the gene expression, the amount of active caspases and activity of the enzymes was measured. The amount of active caspases was estimated by western blot analysis. The activity of expressed caspases was measured using the Caspase Protease Assay kit (MBL International, Watertown, Mass.) or a colorimetric protease assay kit (PanVera, Madison, Wis.) (Minko, et al. (2001) supra). Cells were separately incubated with the conjugates for 48 hours. The assay colormetric assay is based on the spectrophotometric detection of the chromophore p-nitroanilide (pNA) after cleavage from the substrate, X-pNA. An increase in caspase activity was determined by comparing levels in cells exposed to conjugates to levels in cells of the untreated control incubated with saline.
as §5

[12] = A2780, 48 hours, IC50 dose of peptide, ratio of band intensity to β2-m internal standard

CC[C@@]1(O)C(=O)OCc2c1cc1n(c2=O)Cc2cc3ccccc3nc2-1 [CPT, camptothecin]
activation of caspase-dependent apoptosis pathway and cellular antiapoptotic defense (gene expression) [1]: activated both caspase-dependent pathways of apoptosis and cellular antiapoptotic defense

COc1cccc2c1C(=O)c1c(O)c3c(c(O)c1C2=O)C[C@@](O)(C(=O)CO)C[C@@H]3O[C@H]1C[C@H](N)[C@H](O)[C@H](C)O1 [DOX, doxorubicin]
tissue accumulation [2]: significant amount of free DOX accumulation in healthy tissues
IC50 [3]: 484 ± 36.4 nM
tumor size [4]: decreased the tumor size
cell response ([5]; cells that survived exposure to high DOX concentrations): overexpressed the BCL-2 gene and developed resistance to apoptosis
cell response ([5]; low DOX concentrations): responded to the treatment by apoptosis

RQIKIWFQNRRMKWKKMGQVGRQLAIIGDDINRRY [Ant-BH3]
Expression, % of Control: AVEN [6]: 78 ± 2 % of Control
Expression, % of Control: BAG [6]: 56 ± 5 % of Control
Expression, % of Control: BCL-2 [6]: 66 ± 7 % of Control
Expression, % of Control: BCL-W [6]: 97 ± 8 % of Control
Expression, % of Control: BCL-XL [6]: 64 ± 3 % of Control
Expression, % of Control: BFL [6]: 70 ± 2 % of Control
Expression, % of Control: DAD-1 [6]: 99 ± 5 % of Control
Expression, % of Control: MCL-1L [6]: 108 ± 8 % of Control
toxicity [7]: toxic
toxicity [8]: toxic
Expression, % of Control: BAD [9]: 90 ± 8 % of Control
Expression, % of Control: BAX [9]: 91 ± 9 % of Control
Expression, % of Control: BCL-G [9]: 87 ± 11 % of Control
Expression, % of Control: BCL-XS [9]: 168 ± 11 % of Control
Expression, % of Control: BID [9]: 99 ± 9 % of Control
Expression, % of Control: BIK [9]: 511 ± 42 % of Control
Expression, % of Control: BIM [9]: 114 ± 17 % of Control
Expression, % of Control: BNIP-1 [9]: 93 ± 8 % of Control
Expression, % of Control: BNIP-2 [9]: 173 ± 14 % of Control
Expression, % of Control: BNIP-3 [9]: 69 ± 6 % of Control
Expression, % of Control: HRK [9]: 88 ± 10 % of Control
Expression, % of Control: MLS-1S [9]: 130 ± 11 % of Control
Expression, % of Control: NIX [9]: 89 ± 10 % of Control
changes in mitochondrial membrane potential [10]: did not lead to statistically significant changes
Mean Gene Expression ± SD: APAF-1 [11, 12]: 78 ± 3
Mean Gene Expression ± SD: Caspase 2 [11, 12]: 134 ± 5
Mean Gene Expression ± SD: Caspase 3 [11, 12]: 60 ± 5
Mean Gene Expression ± SD: Caspase 6 [11, 12]: 77 ± 5
Mean Gene Expression ± SD: Caspase 7 [11, 12]: 88 ± 8
Mean Gene Expression ± SD: Caspase 8 [11, 12]: 70 ± 6
Mean Gene Expression ± SD: Caspase 9 [11, 12]: 126 ± 11
Mean Gene Expression ± SD: Caspase 10 [11, 12]: 48 ± 3
Mean Gene Expression ± SD: SMAC [11, 12]: 77 ± 2
expression of APAF-1 and SMAC ([11]; A2780 cells): up-regulation

Source: patent publication US8124051B2, “Complex drug delivery composition and method for treating cancer” (priority 2003, dated 2012)
